{"source": "patent US5888744A", "about": "“Detection and separation of aminoglycosides by binding to immobilized lysozyme or α-lactalbumin” (The United States of America, as represented by the …, priority 1995, dated 1999)", "key": {"[1]": {"conditions": "cited from earlier work"}, "immobilized lysozyme [2]": {"target": "T1, immobilized lysozyme (Gallus gallus, UniProt P00698)", "test": "affinity chromatography on immobilized lysozyme (agarose gel), fluorescamine detection", "type": "binding", "conditions": "for binding by the immobilized lysozyme: 25 ppm in water, eluted with 10 mM sodium citrate buffer, pH 4.0; for binding by the affinity column: solubilized in water", "experimental": "This example illustrates an affinity chromatography method for the removal of aminoglycosides from biological fluids either for purification of the aminoglycoside or purification of the fluid by removal of aminoglycosides. Lysozyme and α-lactalbumin are immobilized using Affi-Gel 10® (N-hydroxysuccinimide ester agarose gel). A 1 ml aliquot of Affi-Gel 10® is transferred to a 5 ml disposable column, the solvent is drained, and the gel is washed with 3 bed volumes of cold (4° C.) distilled, deionized water. A 2 ml aliquot of lysozyme, 25 mg/ml in 0.1M 3-(n-morpholino)-propanesulphonic acid buffer (MOPS), pH 7.0, is added to the gel within 10 minutes of the water wash. The column is capped, contents mixed to form a uniform suspension, and incubated at 4° C. for 4 hour on a rotator. After incubation, the effluent is collected to determine unbound protein using the BCA® (Bicinchoninic acid, Pierce, Rockford, IL.) method. The remaining active sites on the agarose support are blocked by incubating 1 ml of 0.1M ethylene diamine (in 0.1M MOPS, pH 7.0) with agarose support for 1 hour at 4° C. on a rotator. The gel is washed with MOPS to remove any unbound material (OD280nm =0). α-lactalbumin is solubilized in 0.1M MOPS, 80 mM calcium chloride, pH 7.0 and is immobilized on Affi-Gel® using the same procedure described above for lysozyme.\nAffinity columns are prepared by adding 1 ml of agarose gel containing immobilized enzyme to 5 ml disposable columns and draining the solvent. The gel is washed with three bed volumes of cold (4° C.) distilled, deionized water. The immobilized lysozyme is activated by washing the gel with 2 ml of 0.1M NaOH at a flow rate of 1 ml/min followed by 4 bed volumes of cold (4° C.) distilled, deionized water to remove NaOH. […] Aqueous solutions of Hygromycin B, concentrations of 1-100 ppm in distilled deionized water, are applied to the affinity columns and allowed to flow by gravity at approximately 1 ml/min. The flow through was collected to determine the amount of unbound hygromycin B. The columns are washed using four 1.0 ml aliquots of water followed by four 1.0 ml aliquots of 10 mM sodium citrate buffer, pH 4.0. The fluorescence of all fractions are determined as described below. Approximately 29 mg of lysozyme (approximately 53% immobilization efficiency; n=12) and 18 mg of α-lactalbumin (approximately 36% immobilization efficiency; n=7) are immobilized per ml of agarose gel using a 4 hour incubation time.\nAminoglycosides can be detected by fluorescence derivatization using fluorescamine (De Silva et al, Anal. Chem., Vol. 47, 714-718, 1975, herein incorporated by reference). The fluorescence assay has a detection limit of 5 ppm for hygromycin B in citrate. […] The affinity column also binds neomycin B, gentamicin, streptomycin, and dihydrostreptomycin. The fluorescence is detected using a Perkin Elmer luminescence spectrometer at an excitation of 395 nm and an emission of 485 nm. In some cases, TLC analysis (Medina et al, IN Residues of Veterinary Drugs in Food, Haagsma et al ED., Proc. EuroResidue II Conference, Veldhoven, The Netherlands, May 3-5, 1993; J. Chromatography, Vol. 663, 127-135, 1995, both herein incorporated by reference) is performed using the eluate from the affinity columns. The solvent is evaporated from the eluates, the samples reconstituted 1:1 using 95% ethanol, and applied to a Whatman LHK-PD silica gel plate with preabsorbant zones (10×10 cm; 9 lanes). The gel plate is developed for approximately 20 minutes with acetone/ethanol/ammonium hydroxide; 1:1:1, dried in a vacuum oven, cooled to room temperature, and dipped for approximately 4 seconds in 0.02% fluorescamine (acetone/hexane; 1:14). The plate is dried, sprayed lightly with 0.2M sodium citrate buffer, pH 3.0-5.0, with optimal signal at approximately pH 4.0, and the fluorescent bands are detected using an ultraviolet light box at a wavelength of 365 nm. […]"}, "[3]": {"target": "T2, immobilized α-lactalbumin (Bos taurus, UniProt P00711)", "T2 sequence (P00711 20-142)": "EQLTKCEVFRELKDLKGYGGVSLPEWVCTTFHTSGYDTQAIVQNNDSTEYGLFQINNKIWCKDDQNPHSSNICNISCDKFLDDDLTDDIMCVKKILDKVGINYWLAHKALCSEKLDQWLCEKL", "test": "affinity chromatography on immobilized α-lactalbumin (agarose gel), fluorescamine detection", "type": "binding", "experimental": "This example illustrates an affinity chromatography method for the removal of aminoglycosides from biological fluids either for purification of the aminoglycoside or purification of the fluid by removal of aminoglycosides. Lysozyme and α-lactalbumin are immobilized using Affi-Gel 10® (N-hydroxysuccinimide ester agarose gel). A 1 ml aliquot of Affi-Gel 10® is transferred to a 5 ml disposable column, the solvent is drained, and the gel is washed with 3 bed volumes of cold (4° C.) distilled, deionized water. A 2 ml aliquot of lysozyme, 25 mg/ml in 0.1M 3-(n-morpholino)-propanesulphonic acid buffer (MOPS), pH 7.0, is added to the gel within 10 minutes of the water wash. The column is capped, contents mixed to form a uniform suspension, and incubated at 4° C. for 4 hour on a rotator. […]\nAffinity columns are prepared by adding 1 ml of agarose gel containing immobilized enzyme to 5 ml disposable columns and draining the solvent. […] The fluorescence of all fractions are determined as described below. […]\nAminoglycosides can be detected by fluorescence derivatization using fluorescamine (De Silva et al, Anal. Chem., Vol. 47, 714-718, 1975, herein incorporated by reference). The fluorescence assay has a detection limit of 5 ppm for hygromycin B in citrate. […] The fluorescence is detected using a Perkin Elmer luminescence spectrometer at an excitation of 395 nm and an emission of 485 nm. […]"}, "lysozyme": {"target": "lysozyme (Gallus gallus, UniProt P00698)", "test": "competitive binding assay, spectinomycin-FITC tracer and latex lysozyme-particles (particle concentration fluorescent assay)", "conditions": "for displacement or competition for the binding sites (bound spectinomycin-FITC): spectinomycin-FITC 4.9 ng and 2.45 ng", "experimental": "This example illustrates the development of an aminoglycoside competitive binding assay using spectinomycin as the test aminoglycoside to confirm the presence of aminoglycosides in aqueous tissue extracts. Lysozyme is immobilized onto latex particles using the following method. Carboxylated latex particles are dispersed by sonication, 10 pulses of 75% duty cycle using power 3. Aliquots of 0.2 ml particles are transferred into 10 ml conical polypropylene tubes. The carboxyls are activated by adding 150 mg N-ethyl-N^3 (3-dimethylaminopropyl)-carbodiimide hydrochloride (EDC) and allowed to stand for approximately 15-20 minutes at approximately room temperature. Two ml of 0.1 mg/ml lysozyme in pH 7, 0.1M phosphate buffer is heated at […] for approximately 30 minutes and then is added to the activated particles drop by drop while mixing gently. The mixture is incubated at 37° C. for approximately 1.5 hours. The derivatized latex (latex-lysozyme) is centrifuged at approximately 8225×g (approximately 10,000 rpm) for approximately 5 minutes at approximately 4° C. The supernatant is assayed for protein content and compared with initial protein concentration using a Biorad protein assay. The latex-lysozyme is washed twice with 2 ml of pH 7 phosphate buffer and centrifuged at approximately 3,000×g for approximately 10 minutes. Four ml of phosphate buffer containing 0.1% sodium azide and 0.015% Brij surfactant is added to the latex lysozyme and the mixture is sonicated with 10 pulses prior to storage at 4° C.\nTo prepare the label for the assay, spectinomycin base (0.01 mM) and FITC (0.02 mM) are dissolved separately in 0.5 ml of 10 mM dibasic phosphate buffer adjusted to pH 8.8 with 10 mM monobasic phosphate buffer. The mixture is mixed gently for 2 hours at room temperature prior to storage at 4° C. The labeling is carried out in brown vials or in tubes wrapped with aluminum foil to prevent photodegradation of the fluorescent compounds. Dilutions are made such that 20 μl contains approximately 5 ng spectinomycin-FITC. Completion of derivatization is screened by thin layer chromatography using 10 ml of developing solvent, methanol:chloroform:acetone:ammonium hydroxide in a ratio of 3:3:3:1. The reaction mixture is diluted in distilled water, 1:100, and applied in 1 μl quantities to TLC plates and developed for approximately 10 minutes in a 118 ml capacity round glass bottle. The derivatized compound is compared to a 0.1 μM FITC sample. […]\nBinding and competition interactions are assessed using lysozyme-particles containing 0.6 pg protein in 10 μl. […] In the 2-step saturation binding assay, the displacement of the bound spectinomycin-FITC is determined by adding unlabeled spectinomycin, 20 μl of 100 ng/ml, after the 30 minute incubation with spectinomycin-FITC. […]"}, "immobilized rat albumin": {"target": "immobilized rat albumin (Rattus norvegicus, UniProt P02770)", "test": "binding by immobilized rat albumin (preliminary results)"}, "immobilized lysozyme [4]": {"target": "T1, immobilized lysozyme", "test": "affinity chromatography on immobilized lysozyme (agarose gel), fluorescamine detection", "type": "binding", "conditions": "in adulterated biological fluids, without prior deionization"}}, "note": "Like-named read-outs stand apart in the source and are kept apart here.", "data": [{"compound": "Neomycin", "values": [{"measurement": "loss of activity of residues in eggs", "setting": "[1]; eggs", "value": 25, "unit": "%"}, {"measurement": "loss of activity of residues in eggs", "setting": "[1]; frying eggs", "value": "little or no loss of activity"}, {"measurement": "loss of activity of residues in eggs", "setting": "[1]; soft boiling and hard boiling", "value": "little or no loss of activity"}]}, {"compound": "gentamicin", "values": [{"measurement": "binding to the lysozyme affinity column (qualitative)", "setting": "immobilized lysozyme [2]", "value": "binds"}, {"measurement": "binding by the immobilized lysozyme", "setting": "immobilized lysozyme [2]", "value": "completely bound"}, {"measurement": "binding by immobilized α-lactalbumin (qualitative)", "setting": "[3]; FIG. 4", "value": "incomplete binding"}]}, {"compound": "NC[C@@H]1O[C@H](O[C@H]2[C@@H](O)[C@H](O[C@@H]3[C@@H](O)[C@H](N)C[C@H](N)[C@H]3O[C@H]3O[C@H](CN)[C@@H](O)[C@H](O)[C@H]3N)O[C@@H]2CO)[C@H](N)[C@@H](O)[C@@H]1O", "note": "[neomycin B]", "values": [{"measurement": "binding to the lysozyme affinity column (qualitative)", "setting": "immobilized lysozyme [2]", "value": "binds"}, {"measurement": "binding by the immobilized lysozyme", "setting": "immobilized lysozyme [2]", "value": "completely bound"}]}, {"compound": "CN[C@@H]1[C@H](O)[C@H](NC)[C@H]2O[C@@]3(O)C(=O)C[C@@H](C)O[C@H]3O[C@@H]2[C@H]1O", "note": "[spectinomycin]", "values": [{"measurement": "displacement or competition for the binding sites (bound spectinomycin-FITC)", "setting": "lysozyme; 1-step equilibrium assay, 20 ng unlabeled spectinomycin", "value": 34, "unit": "%"}, {"measurement": "competition of unlabeled drug for the binding sites", "setting": "lysozyme; 1-step equilibrium assay, dilute spectinomycin-FITC (1.22 ng)", "value": 78, "unit": "%"}, {"measurement": "displacement or competition for the binding sites (bound spectinomycin-FITC)", "setting": "lysozyme; 2-step assay, 20 ng unlabeled spectinomycin added", "value": 96, "unit": "%"}, {"measurement": "displacement of bound spectinomycin-FITC", "setting": "lysozyme; 2-step assay, dilute spectinomycin-FITC (1.22 ng)", "value": "not displaced"}]}, {"compound": "CN[C@@H]1C[C@H](N)[C@@H](O)[C@H](O[C@H]2O[C@H](CO)[C@H](O)[C@@H]3O[C@@]4(O[C@@H]23)O[C@H]([C@H](N)CO)[C@H](O)[C@H](O)[C@H]4O)[C@H]1O", "note": "[Hygromycin B]", "values": [{"measurement": "binding by the affinity column", "setting": "immobilized lysozyme [2]; 10 ppm (5 ml)", "value": "completely bound"}, {"measurement": "binding by the immobilized lysozyme", "setting": "immobilized lysozyme [2]", "value": "completely bound"}, {"measurement": "binding by the affinity column", "setting": "immobilized lysozyme [2]; 60 ppm (10 ml)", "value": "completely bound"}, {"measurement": "binding capacity", "setting": "immobilized lysozyme [2]; immobilized lysozyme", "value": "0.5 mg per ml of affinity gel"}, {"measurement": "difference in binding capacity, lysozyme vs α-lactalbumin", "setting": "immobilized lysozyme [2]; per ml of affinity gel", "value": 5, "unit": "fold"}, {"measurement": "binding capacity", "setting": "[3]; immobilized α-lactalbumin", "value": "0.1 mg per ml of affinity gel"}, {"measurement": "binding by immobilized rat albumin", "setting": "immobilized rat albumin", "value": "binding"}, {"measurement": "binding to immobilized lysozyme", "setting": "immobilized lysozyme [4]", "value": "does not bind"}]}, {"compound": "[H]/N=C(/N)N[C@H]1[C@H](O)[C@@H](O)[C@H](O[C@@H]2O[C@@H](C)[C@](O)(C=O)[C@H]2O[C@@H]2O[C@@H](CO)[C@H](O)[C@@H](O)[C@@H]2NC)[C@@H](N/C(N)=N\\[H])[C@@H]1O", "note": "[streptomycin]", "values": [{"measurement": "binding to the lysozyme affinity column (qualitative)", "setting": "immobilized lysozyme [2]", "value": "binds"}]}, {"compound": "CN[C@@H]1[C@H](O[C@H]2[C@H](O[C@H]3[C@H](O)[C@@H](O)[C@H](NC(=N)N)[C@@H](O)[C@@H]3NC(=N)N)O[C@@H](C)[C@]2(O)CO)O[C@@H](CO)[C@H](O)[C@H]1O", "note": "[dihydrostreptomycin]", "values": [{"measurement": "binding to the lysozyme affinity column (qualitative)", "setting": "immobilized lysozyme [2]", "value": "binds"}]}]}
